Test results reported in patent publication US20130338106A1, “COMPOUNDS INHIBITING LEUCINE-RICH REPEAT KINASE ENZYME ACTIVITY” (priority 2011, published 2013).

What was measured:
Type in all cases: biochemical
PAK2 = biological target: T1, PAK2 (Homo sapiens, UniProt Q13177); experiment: ProfilerPro Kinase Selectivity, PAK2; conditions: tested at 10 uM, read-out: percent inhibition of the kinase activity
T1 construct: purchased Caliper LifeSciences
Procedure: (§1) Kinome selectivity profiling was performed using two example compounds according to the manufacturer's instructions using Caliper LifeSciences' ProfilerPro Kinase Selectivity Assay Kits. Compounds prepared in Examples 1 and 7 were tested at 10 uM and data were recorded using the Caliper LabChip® EZ Reader™. Each compounds' percent inhibition of the kinase activity measured in this manner is reported in the following lists.

EGFR T790M L858R = biological target: T2, EGFR T790M L858R (Homo sapiens, UniProt P00533, L858R/T790M); experiment: ProfilerPro Kinase Selectivity, EGFR T790M L858R; conditions: tested at 10 uM, read-out: percent inhibition of the kinase activity
T2 construct: purchased Caliper LifeSciences
Procedure: as §1

EPHB1 = biological target: T3, EPHB1 (Homo sapiens, UniProt P54762); experiment: ProfilerPro Kinase Selectivity, EPHB1; conditions: tested at 10 uM, read-out: percent inhibition of the kinase activity
T3 construct: purchased Caliper LifeSciences
Procedure: as §1

AMPKA2/B1/G1 = biological target: T4, AMPKA2/B1/G1 (Homo sapiens, UniProt P54646); experiment: ProfilerPro Kinase Selectivity, AMPKA2/B1/G1; conditions: tested at 10 uM, read-out: percent inhibition of the kinase activity
T4 construct: purchased Caliper LifeSciences
Procedure: as §1

RSK3 = biological target: T5, RSK3 (Homo sapiens, UniProt Q15349); experiment: ProfilerPro Kinase Selectivity, RSK3; conditions: tested at 10 uM, read-out: percent inhibition of the kinase activity
T5 construct: purchased Caliper LifeSciences
Procedure: as §1

MET = biological target: T6, MET (Homo sapiens, UniProt P08581); experiment: ProfilerPro Kinase Selectivity, MET; conditions: tested at 10 uM, read-out: percent inhibition of the kinase activity
T6 construct: purchased Caliper LifeSciences
Procedure: as §1

PKG1A = biological target: T7, PKG1A (Homo sapiens, UniProt Q13976); experiment: ProfilerPro Kinase Selectivity, PKG1A; conditions: tested at 10 uM, read-out: percent inhibition of the kinase activity
T7 construct: purchased Caliper LifeSciences
Procedure: as §1

ERK1 = biological target: T8, ERK1 (Homo sapiens, UniProt P27361); experiment: ProfilerPro Kinase Selectivity, ERK1; conditions: tested at 10 uM, read-out: percent inhibition of the kinase activity
T8 construct: purchased Caliper LifeSciences
Procedure: as §1

FLT1 = biological target: T9, FLT1 (Homo sapiens, UniProt P17948); experiment: ProfilerPro Kinase Selectivity, FLT1; conditions: tested at 10 uM, read-out: percent inhibition of the kinase activity
T9 construct: purchased Caliper LifeSciences
Procedure: as §1

FGR = biological target: T10, FGR (Homo sapiens, UniProt P09769); experiment: ProfilerPro Kinase Selectivity, FGR; conditions: tested at 10 uM, read-out: percent inhibition of the kinase activity
T10 construct: purchased Caliper LifeSciences
Procedure: as §1

MARK1 = biological target: T11, MARK1 (Homo sapiens, UniProt Q9P0L2); experiment: ProfilerPro Kinase Selectivity, MARK1; conditions: tested at 10 uM, read-out: percent inhibition of the kinase activity
T11 construct: purchased Caliper LifeSciences
Procedure: as §1

EPHB3 = biological target: T12, EPHB3 (Homo sapiens, UniProt P54753); experiment: ProfilerPro Kinase Selectivity, EPHB3; conditions: tested at 10 uM, read-out: percent inhibition of the kinase activity
T12 construct: purchased Caliper LifeSciences
Procedure: as §1

PRKCQ = biological target: T13, PRKCQ (Homo sapiens, UniProt Q04759); experiment: ProfilerPro Kinase Selectivity, PRKCQ; conditions: tested at 10 uM, read-out: percent inhibition of the kinase activity
T13 construct: purchased Caliper LifeSciences
Procedure: as §1

ABL H396P = biological target: T14, ABL H396P (Homo sapiens, UniProt P00519, H396P); experiment: ProfilerPro Kinase Selectivity, ABL H396P; conditions: tested at 10 uM, read-out: percent inhibition of the kinase activity
T14 construct: purchased Caliper LifeSciences
Procedure: as §1

PKG1B = biological target: T15, PKG1B (Homo sapiens, UniProt Q13976); experiment: ProfilerPro Kinase Selectivity, PKG1B; conditions: tested at 10 uM, read-out: percent inhibition of the kinase activity
T15 construct: purchased Caliper LifeSciences
Procedure: as §1

PRKCH = biological target: T16, PRKCH (Homo sapiens, UniProt P24723); experiment: ProfilerPro Kinase Selectivity, PRKCH; conditions: tested at 10 uM, read-out: percent inhibition of the kinase activity
T16 construct: purchased Caliper LifeSciences
Procedure: as §1

KIT = biological target: T17, KIT (Homo sapiens, UniProt P10721); experiment: ProfilerPro Kinase Selectivity, KIT; conditions: tested at 10 uM, read-out: percent inhibition of the kinase activity
T17 construct: purchased Caliper LifeSciences
Procedure: as §1

PDGFR A(550) = biological target: T18, PDGFR A(550) (Homo sapiens, UniProt P16234); experiment: ProfilerPro Kinase Selectivity, PDGFR A(550); conditions: tested at 10 uM, read-out: percent inhibition of the kinase activity
T18 construct: purchased Caliper LifeSciences
Procedure: as §1

YES = biological target: T19, YES (Homo sapiens, UniProt P07947); experiment: ProfilerPro Kinase Selectivity, YES; conditions: tested at 10 uM, read-out: percent inhibition of the kinase activity
T19 construct: purchased Caliper LifeSciences
Procedure: as §1

ROCK2 = biological target: T20, ROCK2 (Homo sapiens, UniProt O75116); experiment: ProfilerPro Kinase Selectivity, ROCK2; conditions: tested at 10 uM, read-out: percent inhibition of the kinase activity
T20 construct: purchased Caliper LifeSciences
Procedure: as §1

EPHA1 = biological target: T21, EPHA1 (Homo sapiens, UniProt P21709); experiment: ProfilerPro Kinase Selectivity, EPHA1; conditions: tested at 10 uM, read-out: percent inhibition of the kinase activity
T21 construct: purchased Caliper LifeSciences
Procedure: as §1

RAF-1 = biological target: T22, RAF-1 (Homo sapiens, UniProt P04049); experiment: ProfilerPro Kinase Selectivity, RAF-1; conditions: tested at 10 uM, read-out: percent inhibition of the kinase activity
T22 construct: purchased Caliper LifeSciences
Procedure: as §1

[1] = biological target: T23, LRRK2 G2019S mutant kinase (Homo sapiens, UniProt Q5S007, G2019S); experiment: LRRK2 G2019S LanthaScreen TR-FRET kinase assay; conditions: LRRK2 G2019S GST-tagged protein, 100 μM ATP, LRRKtide substrate; read-out: IC50 (potency)
T23 construct: GST; purchased Invitrogen PV4882
In short: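 GST-tagged enzyme with 75 nM fluorescein-ERM (LRRKtide) substrate, 100 μM ATP, 2 mM DTT, 1% DMSO final; 1 h at room temperature. Stopped with EDTA and Tb-anti-pERM antibody, 30 min, then TR-FRET read (ex 340, em 520/495 nm); IC50 and maximal inhibition derived.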

MST3 = biological target: T24, MST3 (Homo sapiens, UniProt Q9Y6E0); experiment: ProfilerPro Kinase Selectivity, MST3; conditions: tested at 10 uM, read-out: percent inhibition of the kinase activity
T24 construct: purchased Caliper LifeSciences
Procedure: as §1

CAMK1A = biological target: T25, CAMK1A (Homo sapiens, UniProt Q14012); experiment: ProfilerPro Kinase Selectivity, CAMK1A; conditions: tested at 10 uM, read-out: percent inhibition of the kinase activity
T25 construct: purchased Caliper LifeSciences
Procedure: as §1

AKT2 = biological target: T26, AKT2 (Homo sapiens, UniProt P31751); experiment: ProfilerPro Kinase Selectivity, AKT2; conditions: tested at 10 uM, read-out: percent inhibition of the kinase activity
T26 construct: purchased Caliper LifeSciences
Procedure: as §1

HGK = biological target: T27, HGK (Homo sapiens, UniProt O95819); experiment: ProfilerPro Kinase Selectivity, HGK; conditions: tested at 10 uM, read-out: percent inhibition of the kinase activity
T27 construct: purchased Caliper LifeSciences
Procedure: as §1

CAMK2A = biological target: T28, CAMK2A (Homo sapiens, UniProt Q9UQM7); experiment: ProfilerPro Kinase Selectivity, CAMK2A; conditions: tested at 10 uM, read-out: percent inhibition of the kinase activity
T28 construct: purchased Caliper LifeSciences
Procedure: as §1

FLT3 = biological target: T29, FLT3 (Homo sapiens, UniProt P36888); experiment: ProfilerPro Kinase Selectivity, FLT3; conditions: tested at 10 uM, read-out: percent inhibition of the kinase activity
T29 construct: purchased Caliper LifeSciences
Procedure: as §1

T16 sequence (P24723 whole entry): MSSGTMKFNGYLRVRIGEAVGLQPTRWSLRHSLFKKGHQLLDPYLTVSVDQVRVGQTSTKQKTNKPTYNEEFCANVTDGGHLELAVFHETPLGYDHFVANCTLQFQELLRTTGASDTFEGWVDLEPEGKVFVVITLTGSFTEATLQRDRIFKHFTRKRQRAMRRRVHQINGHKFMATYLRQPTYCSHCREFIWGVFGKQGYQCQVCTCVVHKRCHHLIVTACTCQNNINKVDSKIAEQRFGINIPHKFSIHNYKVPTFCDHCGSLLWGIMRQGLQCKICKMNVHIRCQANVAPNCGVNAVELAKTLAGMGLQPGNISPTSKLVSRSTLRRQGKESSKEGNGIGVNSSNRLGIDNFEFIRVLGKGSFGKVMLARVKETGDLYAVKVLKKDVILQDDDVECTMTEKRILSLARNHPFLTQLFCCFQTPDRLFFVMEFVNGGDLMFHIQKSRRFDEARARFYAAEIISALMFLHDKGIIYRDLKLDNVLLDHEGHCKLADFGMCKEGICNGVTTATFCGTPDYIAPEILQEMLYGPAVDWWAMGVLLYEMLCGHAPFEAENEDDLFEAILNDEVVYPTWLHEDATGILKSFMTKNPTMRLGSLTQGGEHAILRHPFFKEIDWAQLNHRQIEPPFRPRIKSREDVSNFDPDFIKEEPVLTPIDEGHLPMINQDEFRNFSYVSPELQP
T26 sequence (P31751 whole entry, species assumed): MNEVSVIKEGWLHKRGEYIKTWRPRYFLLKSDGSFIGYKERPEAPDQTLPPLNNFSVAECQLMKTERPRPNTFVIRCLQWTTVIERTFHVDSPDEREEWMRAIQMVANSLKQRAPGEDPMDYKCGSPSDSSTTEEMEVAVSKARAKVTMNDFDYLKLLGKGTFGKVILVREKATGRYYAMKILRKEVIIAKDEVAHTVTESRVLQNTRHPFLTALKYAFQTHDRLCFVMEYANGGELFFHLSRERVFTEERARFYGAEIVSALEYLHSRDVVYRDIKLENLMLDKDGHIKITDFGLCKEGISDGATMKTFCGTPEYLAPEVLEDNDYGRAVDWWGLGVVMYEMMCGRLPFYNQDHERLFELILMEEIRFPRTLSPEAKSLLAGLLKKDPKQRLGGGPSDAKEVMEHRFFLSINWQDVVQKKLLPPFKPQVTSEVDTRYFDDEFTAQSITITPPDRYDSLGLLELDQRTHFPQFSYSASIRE
T5 sequence (Q15349 whole entry, species assumed): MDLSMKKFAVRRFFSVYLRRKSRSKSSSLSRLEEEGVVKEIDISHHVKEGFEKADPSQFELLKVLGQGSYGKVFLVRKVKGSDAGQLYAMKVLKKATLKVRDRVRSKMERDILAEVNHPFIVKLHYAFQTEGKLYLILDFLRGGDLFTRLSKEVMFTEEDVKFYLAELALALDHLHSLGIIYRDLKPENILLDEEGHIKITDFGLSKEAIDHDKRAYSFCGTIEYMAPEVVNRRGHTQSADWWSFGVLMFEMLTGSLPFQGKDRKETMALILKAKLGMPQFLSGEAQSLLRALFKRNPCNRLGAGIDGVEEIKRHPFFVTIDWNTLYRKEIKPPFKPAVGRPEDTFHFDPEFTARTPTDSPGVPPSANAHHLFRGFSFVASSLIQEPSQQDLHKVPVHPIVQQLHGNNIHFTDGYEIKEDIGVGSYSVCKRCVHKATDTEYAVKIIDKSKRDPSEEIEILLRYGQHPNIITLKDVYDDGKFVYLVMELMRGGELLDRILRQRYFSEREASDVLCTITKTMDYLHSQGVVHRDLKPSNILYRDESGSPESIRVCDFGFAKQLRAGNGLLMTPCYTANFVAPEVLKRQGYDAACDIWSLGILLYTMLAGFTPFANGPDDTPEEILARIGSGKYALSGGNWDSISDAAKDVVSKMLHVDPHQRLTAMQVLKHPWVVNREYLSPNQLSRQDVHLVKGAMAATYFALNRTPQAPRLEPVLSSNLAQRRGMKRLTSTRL
T21 sequence (P21709 26-976, species assumed): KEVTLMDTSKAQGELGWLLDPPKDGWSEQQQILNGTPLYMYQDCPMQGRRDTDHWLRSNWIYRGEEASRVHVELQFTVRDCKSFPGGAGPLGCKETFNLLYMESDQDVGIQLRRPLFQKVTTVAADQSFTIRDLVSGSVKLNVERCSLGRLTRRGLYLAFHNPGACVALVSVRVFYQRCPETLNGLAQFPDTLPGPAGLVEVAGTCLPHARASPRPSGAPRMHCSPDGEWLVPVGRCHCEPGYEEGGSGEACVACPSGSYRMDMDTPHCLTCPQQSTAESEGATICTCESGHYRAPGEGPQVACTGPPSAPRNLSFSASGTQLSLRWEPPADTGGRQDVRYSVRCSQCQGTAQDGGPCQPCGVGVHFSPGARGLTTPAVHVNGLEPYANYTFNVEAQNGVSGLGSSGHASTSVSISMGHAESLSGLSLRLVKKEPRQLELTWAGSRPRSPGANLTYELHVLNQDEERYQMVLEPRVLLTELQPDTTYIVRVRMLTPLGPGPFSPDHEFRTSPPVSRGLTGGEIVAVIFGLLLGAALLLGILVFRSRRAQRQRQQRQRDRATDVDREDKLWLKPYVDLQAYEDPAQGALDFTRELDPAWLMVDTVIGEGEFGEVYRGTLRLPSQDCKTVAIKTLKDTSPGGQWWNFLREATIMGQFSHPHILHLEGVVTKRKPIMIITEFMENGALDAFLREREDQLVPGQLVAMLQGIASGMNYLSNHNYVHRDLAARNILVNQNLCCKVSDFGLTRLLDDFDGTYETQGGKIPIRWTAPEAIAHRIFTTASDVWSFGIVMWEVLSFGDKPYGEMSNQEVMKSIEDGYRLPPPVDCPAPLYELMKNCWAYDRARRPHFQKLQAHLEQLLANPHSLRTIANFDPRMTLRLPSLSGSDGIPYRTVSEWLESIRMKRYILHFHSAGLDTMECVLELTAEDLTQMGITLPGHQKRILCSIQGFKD
T2 sequence (P00533 25-1210 T790M/L858R): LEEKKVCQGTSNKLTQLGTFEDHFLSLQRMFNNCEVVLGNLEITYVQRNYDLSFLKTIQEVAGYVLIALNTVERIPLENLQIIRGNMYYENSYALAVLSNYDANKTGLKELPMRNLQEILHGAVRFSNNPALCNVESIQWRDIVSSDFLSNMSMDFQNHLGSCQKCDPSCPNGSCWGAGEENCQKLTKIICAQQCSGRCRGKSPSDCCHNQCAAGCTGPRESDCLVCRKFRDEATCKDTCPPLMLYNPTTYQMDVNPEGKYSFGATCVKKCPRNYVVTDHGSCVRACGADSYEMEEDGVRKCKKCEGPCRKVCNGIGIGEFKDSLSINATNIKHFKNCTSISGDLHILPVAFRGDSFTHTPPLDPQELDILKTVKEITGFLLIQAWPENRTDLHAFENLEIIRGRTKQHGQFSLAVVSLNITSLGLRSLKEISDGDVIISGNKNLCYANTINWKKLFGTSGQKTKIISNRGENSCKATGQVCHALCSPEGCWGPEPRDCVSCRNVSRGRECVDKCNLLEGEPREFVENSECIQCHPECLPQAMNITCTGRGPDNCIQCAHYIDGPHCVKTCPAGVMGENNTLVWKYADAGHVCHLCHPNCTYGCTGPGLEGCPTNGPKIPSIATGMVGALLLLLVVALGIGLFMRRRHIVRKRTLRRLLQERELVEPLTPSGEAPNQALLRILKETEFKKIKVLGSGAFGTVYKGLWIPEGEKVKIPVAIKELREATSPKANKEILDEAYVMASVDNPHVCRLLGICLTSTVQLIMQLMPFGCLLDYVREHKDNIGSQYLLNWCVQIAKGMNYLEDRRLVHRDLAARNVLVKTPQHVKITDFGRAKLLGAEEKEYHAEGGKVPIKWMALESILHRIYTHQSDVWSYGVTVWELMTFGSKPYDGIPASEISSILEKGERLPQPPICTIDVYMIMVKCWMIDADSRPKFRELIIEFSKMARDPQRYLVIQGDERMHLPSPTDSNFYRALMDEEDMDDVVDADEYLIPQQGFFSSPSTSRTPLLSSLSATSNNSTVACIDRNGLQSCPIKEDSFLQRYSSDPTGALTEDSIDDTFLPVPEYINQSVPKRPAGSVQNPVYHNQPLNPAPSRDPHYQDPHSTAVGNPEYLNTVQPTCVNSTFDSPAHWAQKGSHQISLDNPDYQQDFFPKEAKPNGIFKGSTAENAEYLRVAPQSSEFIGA
T3 sequence (P54762 18-984, species assumed): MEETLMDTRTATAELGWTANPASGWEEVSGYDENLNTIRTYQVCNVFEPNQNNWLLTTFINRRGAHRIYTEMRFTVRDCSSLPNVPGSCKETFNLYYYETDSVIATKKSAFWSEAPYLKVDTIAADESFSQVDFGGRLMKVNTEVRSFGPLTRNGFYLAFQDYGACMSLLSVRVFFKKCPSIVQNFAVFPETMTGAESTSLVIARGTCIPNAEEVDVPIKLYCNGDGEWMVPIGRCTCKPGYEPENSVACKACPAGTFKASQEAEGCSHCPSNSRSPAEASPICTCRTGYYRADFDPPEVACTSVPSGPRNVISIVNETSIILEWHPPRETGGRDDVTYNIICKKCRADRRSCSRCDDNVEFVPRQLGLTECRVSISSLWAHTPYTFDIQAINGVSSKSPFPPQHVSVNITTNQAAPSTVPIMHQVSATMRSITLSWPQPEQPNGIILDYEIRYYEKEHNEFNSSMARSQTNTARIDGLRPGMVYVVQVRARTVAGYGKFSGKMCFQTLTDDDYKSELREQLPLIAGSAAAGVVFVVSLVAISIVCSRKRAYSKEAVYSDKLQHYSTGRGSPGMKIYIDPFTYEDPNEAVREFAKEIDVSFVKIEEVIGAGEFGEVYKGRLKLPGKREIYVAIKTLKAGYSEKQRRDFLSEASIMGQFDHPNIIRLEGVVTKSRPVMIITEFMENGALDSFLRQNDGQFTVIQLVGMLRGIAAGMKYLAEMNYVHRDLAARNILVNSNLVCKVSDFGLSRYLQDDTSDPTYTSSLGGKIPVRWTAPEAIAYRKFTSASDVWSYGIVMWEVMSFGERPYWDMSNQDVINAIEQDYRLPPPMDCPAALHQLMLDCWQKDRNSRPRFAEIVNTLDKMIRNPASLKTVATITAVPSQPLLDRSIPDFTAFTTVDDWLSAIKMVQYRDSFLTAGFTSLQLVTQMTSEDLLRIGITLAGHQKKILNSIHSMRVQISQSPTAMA

Row | Structure (SMILES) | inhibition at 10 µM (PAK2) [%] | inhibition at 10 µM (EGFR T790M L858R) [%] | inhibition at 10 µM (EPHB1) [%] | inhibition at 10 µM (AMPKA2/B1/G1) [%] | inhibition at 10 µM (RSK3) [%] | inhibition at 10 µM (MET) [%] | inhibition at 10 µM (PKG1A) [%] | inhibition at 10 µM (ERK1) [%] | inhibition at 10 µM (FLT1) [%] | inhibition at 10 µM (FGR) [%] | inhibition at 10 µM (MARK1) [%] | inhibition at 10 µM (EPHB3) [%] | inhibition at 10 µM (PRKCQ) [%] | inhibition at 10 µM (ABL H396P) [%] | inhibition at 10 µM (PKG1B) [%] | inhibition at 10 µM (PRKCH) [%] | inhibition at 10 µM (KIT) [%] | inhibition at 10 µM (PDGFR A(550)) [%] | inhibition at 10 µM (YES) [%] | inhibition at 10 µM (ROCK2) [%] | further results
1 | CC1(C)CC(=O)c2c(SC3CCCC3)sc(-c3cc[nH]n3)c2C1 [Example 7, 3-(Cyclopentylsulfanyl)-6,6-dimethyl-1-(1H-pyrazol-3-yl)-6,7-dihydro-2-benzothiophen-4(5H)-one] | 2.4 | 13.7 | 3.3 | 4.5 | 2 | -0.9 | 1.9 | 1.9 | 11.8 | -1.6 | -0.6 | 2.2 | -4.7 | 3.1 | -0.6 | 0.8 | -7.3 | -13.8 | -11.1 | 0.9 | inhibition at 10 µM (EPHA1): -0.2%; inhibition at 10 µM (RAF-1): -0.2%; IC50 [1]: 93 nM; inhibition at 10 µM (MST3): -10.9%; inhibition at 10 µM (CAMK1A): 6%; inhibition at 10 µM (AKT2): -6.8%; inhibition at 10 µM (HGK): 3.9%; inhibition at 10 µM (CAMK2A): 1.7%; inhibition at 10 µM (FLT3): 4.6%
2 | CSc1sc(-c2cc[nH]n2)c2c1C(=O)CCC2 [Example 1, 3-(Methylsulfanyl)-1-(1H-pyrazol-3-yl)-6,7-dihydro-2-benzothiophen-4(5H)-one] | 4.6 | 3.9 | 3 | -2.7 | 9.4 | 8.2 | -5.9 | -2 | 1.2 | -7.2 | -2.9 | -1 | -0.4 | 10.3 | 10.8 | 1.1 | 19.2 | 1.5 | -4.4 | -3.5 | inhibition at 10 µM (EPHA1): 2.8%; inhibition at 10 µM (RAF-1): 3.1%; IC50 [1]: 190 nM; inhibition at 10 µM (MST3): -2.2%; inhibition at 10 µM (CAMK1A): 7.4%; inhibition at 10 µM (AKT2): -6.8%; inhibition at 10 µM (HGK): 13.8%; inhibition at 10 µM (CAMK2A): -4.8%; inhibition at 10 µM (FLT3): 11.4%
